How the values were obtained:
TGF-β signaling = assay: Assay for evaluating cellular inhibition of TGF-β signaling, 4T1 (SBE-luc2P) luciferase reporter; format: cell-based; conditions: Mus musculus, 4T1, 4T1 (SBE-luc2P) transient pool, 0.2% FBS, 2 h pre-treatment, TGF-β1 2 ng/mL 24 h; read-out: IC50 4T1 Cell
Summary of the method: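 4T1 cells transiently carrying SBE-luc2P (6×10^3/well, 0.2% FBS, ~60% confluence) or HEK293 SBE-reporter stable cells (2.5×10^4/well, 0.5% FBS, ~80% confluence) pre-treated with compound for 2 h. TGF-β1 (2 ng/mL) then added for 24 h at 37 °C; luciferase luminescence read from lysates.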

ALK5 kinase = target: T1, ALK5 kinase (Homo sapiens, UniProt P36897); assay: LanthaScreen Eu Kinase Binding Assay; conditions: Kinase Tracer 178, Eu-anti-GST Antibody, read-out: IC50 Enzyme
T1 sequence (P36897 34-503): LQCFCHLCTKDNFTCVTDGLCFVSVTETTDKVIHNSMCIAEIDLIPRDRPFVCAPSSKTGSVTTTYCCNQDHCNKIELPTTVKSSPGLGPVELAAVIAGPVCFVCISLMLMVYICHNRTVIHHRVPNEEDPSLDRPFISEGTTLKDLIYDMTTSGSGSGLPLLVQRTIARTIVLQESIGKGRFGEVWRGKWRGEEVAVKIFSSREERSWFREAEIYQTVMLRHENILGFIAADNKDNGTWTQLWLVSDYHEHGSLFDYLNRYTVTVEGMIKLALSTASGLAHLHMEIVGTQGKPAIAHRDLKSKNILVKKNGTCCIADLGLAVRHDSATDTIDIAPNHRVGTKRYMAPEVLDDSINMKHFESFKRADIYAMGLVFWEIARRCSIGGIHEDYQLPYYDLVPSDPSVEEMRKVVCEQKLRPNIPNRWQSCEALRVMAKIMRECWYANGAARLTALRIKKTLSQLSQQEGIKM
Summary of the method: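 Compound (1% DMSO final) preincubated 30 min at RT with GST-tagged ALK5, then Eu-anti-GST antibody and Kinase Tracer 178 added for 60 min at RT. TR-FRET read at 340 nm excitation; 665/615 nm emission ratio falls as compound binding rises.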

IC50 (TGF-β signaling)	IC50 (ALK5 kinase)	SMILES
< 100 nM	< 100 nM	Cc1cccc(-c2nc(C(F)(F)F)sc2Oc2ccnc(Nc3ccc(C(N)=O)cn3)c2)n1 [A-290]
> 100 nM	< 100 nM	CC(C)(O)c1cc(Nc2cc(Oc3sc(C4CC4)nc3-c3ccccc3)ccn2)ccn1 [A-120, 2-(4-((4-((2-Cyclopropyl-4-phenylthiazol-5-yl)oxy)pyridin-2-yl)amino)pyridin-2-yl)propan-2-ol]
> 100 nM	> 100 nM	CNC(=O)c1ccc(Nc2cc(Oc3sc(C4CCCC4)nc3-c3ccccc3)ccn2)nc1 [A-176, 6-((4-((2-Cyclopentyl-4-phenylthiazol-5-yl)oxy)pyridin-2-yl)amino)-N-methylnicotinamide]
< 100 nM	< 100 nM	Cc1nc(-c2ccccc2)c(Oc2ccnc(Nc3cccc(NS(=O)(=O)C(F)(F)F)c3)c2)s1 [A-107, 1,1,1-Trifluoro-N-(3-((4-((2-methyl-4-phenylthiazol-5-yl)oxy)pyridin-2-yl)amino)phenyl)methanesulfonamide]
> 100 nM	> 100 nM	NC(=O)c1ccc(Nc2cc(Oc3sc(C4CCCCC4)nc3-c3ccccc3)ccn2)nc1 [A-177, 6-((4-((2-Cyclohexyl-4-phenylthiazol-5-yl)oxy)pyridin-2-yl)amino)nicotinamide]
< 100 nM	< 100 nM	Cc1cccc(-c2nc(N(C)C)sc2Oc2ccnc(Nc3ccc(C(=O)O)cn3)c2)n1 [A-285, 6-((4-((2-(Dimethylamino)-4-(6-methylpyridin-2-yl)thiazol-5-yl)oxy)pyridin-2-yl)amino)nicotinic acid]
> 100 nM	> 100 nM	Cc1nc(-c2ccccc2)c(Oc2ccnc(Nc3cccc(S(=O)(=O)C(F)(F)F)c3)c2)s1 [A-72, 4-((2-Methyl-4-phenylthiazol-5-yl)oxy)-N-(3-((trifluoromethyl)sulfonyl)phenyl)pyridin-2-amine]
< 100 nM	< 100 nM	Cc1nc(-c2ccccc2)c(Oc2ccnc(Nc3cccc(CC#N)c3)c2)s1 [A-111, 2-(3-((4-((2-Methyl-4-phenylthiazol-5-yl)oxy)pyridin-2-yl)amino)phenyl)acetonitrile]
> 100 nM	< 100 nM	CC(C)c1nc(-c2ccccc2)c(Oc2ccnc(Nc3ccc(S(N)(=O)=O)cc3)c2)s1 [A-221, 4-((4-((2-Isopropyl-4-phenylthiazol-5-yl)oxy)pyridin-2-yl)amino)benzenesulfonamide]
< 100 nM	< 100 nM	O=C(NO)c1ccc(Nc2cc(Oc3sc(C4CC4)nc3-c3ccccc3)ccn2)nc1 [A-138, 6-((4-((2-Cyclopropyl-4-phenylthiazol-5-yl)oxy)pyridin-2-yl)amino)-N-hydroxynicotinamide]
> 100 nM	< 100 nM	CNc1nc(-c2ccccc2)c(Oc2ccnc(Nc3cccc(C(=O)O)c3)c2)s1 [A-57, 3-((4-((2-(Methylamino)-4-phenylthiazol-5-yl)oxy)pyridin-2-yl)amino)benzoic acid]
> 100 nM	< 100 nM	CCc1nc(-c2ccccc2)c(Oc2ccnc(Nc3ccc(C(C)(C)O)nc3)c2)s1 [A-187, 2-(5-((4-((2-Ethyl-4-phenylthiazol-5-yl)oxy)pyridin-2-yl)amino)pyridin-2-yl)propan-2-ol]
< 100 nM	< 100 nM	Cc1cccc(-c2nc(N(C)C)sc2Oc2ccnc(Nc3ccc(C(N)=O)cn3)c2)n1 [A-284, 6-((4-((2-(Dimethylamino)-4-(6-methylpyridin-2-yl)thiazol-5-yl)oxy)pyridin-2-yl)amino)nicotinamide]
< 100 nM	< 100 nM	CCc1nc(-c2cccc(C)n2)c(Oc2ccnc(Nc3cncc(C(N)=O)c3)c2)s1 [A-261, 5-((4-((2-Ethyl-4-(6-methylpyridin-2-yl)thiazol-5-yl)oxy)pyridin-2-yl)amino)nicotinamide]
> 100 nM	< 100 nM	CS(=O)(=O)NC(=O)c1ccc(Nc2cc(Oc3sc(C4CC4)nc3-c3ccccc3)ccn2)nc1 [A-140, 6-((4-((2-Cyclopropyl-4-phenylthiazol-5-yl)oxy)pyridin-2-yl)amino)-N-(methylsulfonyl)nicotinamide]
> 100 nM	< 100 nM	Cc1nc(-c2ccccc2)c(Oc2ccnc(Nc3ccc(S(N)(=O)=O)cc3)c2)s1 [A-64, 4-((4-((2-Methyl-4-phenylthiazol-5-yl)oxy)pyridin-2-yl)amino)benzenesulfonamide]
< 100 nM	< 100 nM	CCc1nc(-c2ccccc2)c(Oc2ccnc(Nc3ccc(C(=O)NC)cn3)c2)s1 [A-193, 6-((4-((2-Ethyl-4-phenylthiazol-5-yl)oxy)pyridin-2-yl)amino)-N-methylnicotinamide]
< 100 nM	< 100 nM	Cc1nc(-c2ccccc2)c(Oc2ccnc(Nc3cccc(NS(C)(=O)=O)c3)c2)s1 [A-71, N-(3-((4-((2-Methyl-4-phenylthiazol-5-yl)oxy)pyridin-2-yl)amino)phenyl)methanesulfonamide]
< 100 nM	< 100 nM	CCc1nc(-c2cccc(C)n2)c(Oc2ccnc(Nc3cc(C(=O)NC)ccn3)c2)s1 [A-268, 2-((4-((2-Ethyl-4-(6-methylpyridin-2-yl)thiazol-5-yl)oxy)pyridin-2-yl)amino)-N-methylisonicotinamide]
> 100 nM	< 100 nM	CNC(=O)c1ccc(Nc2cc(Oc3sc(C(C)C)nc3-c3ccccc3)ccn2)cc1 [A-229, 4-((4-((2-Isopropyl-4-phenylthiazol-5-yl)oxy)pyridin-2-yl)amino)-N-methylbenzamide]
> 100 nM	< 100 nM	COc1nc(-c2ccccc2)c(Oc2ccnc(Nc3cccc(C(C)(C)O)c3)c2)s1 [A-141, 2-(3-((4-((2-Methoxy-4-phenylthiazol-5-yl)oxy)pyridin-2-yl)amino)phenyl)propan-2-ol]
< 100 nM	< 100 nM	CS(=O)(=O)Nc1ccc(Nc2cc(Oc3sc(C4CC4)nc3-c3ccccc3)ccn2)cc1 [A-128, N-(4-((4-((2-Cyclopropyl-4-phenylthiazol-5-yl)oxy)pyridin-2-yl)amino)phenyl)methanesulfonamide]
< 100 nM	< 100 nM	Cc1cccc(-c2nc(N)sc2Oc2ccnc(Nc3cccc(C(=O)O)c3)c2)n1 [A-249, 3-((4-((2-Amino-4-(6-methylpyridin-2-yl)thiazol-5-yl)oxy)pyridin-2-yl)amino)benzoic acid]
< 100 nM	< 100 nM	CN(C)c1nc(-c2ccccc2)c(Oc2ccnc(Nc3ccc(C(=O)O)cc3)c2)s1 [A-168, 4-((4-((2-(Dimethylamino)-4-phenylthiazol-5-yl)oxy)pyridin-2-yl)amino)benzoic acid]
> 100 nM	< 100 nM	O=C(O)c1ccc(Nc2cc(Oc3sc(C4CCCC4)nc3-c3ccccc3)ccn2)nc1 [A-174, 6-((4-((2-Cyclopentyl-4-phenylthiazol-5-yl)oxy)pyridin-2-yl)amino)nicotinic acid]
< 100 nM	< 100 nM	Nc1nc(-c2ccccc2)c(Oc2ccnc(Nc3cccc(S(N)(=O)=O)c3)c2)s1 [A-1, 3-((4-((2-Amino-4-phenylthiazol-5-yl)oxy)pyridin-2-yl)amino)benzenesulfonamide]
< 100 nM	< 100 nM	Cc1cccc(-c2nc(C3CC3)sc2Oc2ccnc(Nc3ccc(C(N)=O)cn3)c2)n1 [A-275]
